# Results: US11987571B1, “Ethyl 2-[9-(6-chloro-2-hydroxyquinolin-3-yl)-3,6-diphenyl-1,8-dioxo-3,4,9,10-tetrahydroacridine-10-yl]-acetate as an antimicrobial compound” (KING FAISAL UNIVERSITY, priority 2023, dated 2024)
# Tests used:
# Candida albicans = assay: Antimicrobial activity by agar dilution, Candida albicans; format: cell-based; conditions: after 10, 20, 40 and 60 minutes at all dilutions 1:100, 1:200, 1:400, and 1:800
# Description: (§1) The antibacterial properties of the synthesized compound (ethyl 2-[9-(6-chloro-2-hydroxyquinolin-3-yl)-3,6-diphenyl-1,8-dioxo-3,4,9,10-tetrahydroacridine-10-yl]-acetate) were studied by the method of agar dilution. Test solutions of each compound was prepared in concentration of 1% using dimethylformamide as a solvent. Then they were diluted in physiological solution to obtain the final experimental dilutions of 1:100, 1:200, 1:400, and 1:800. The effect of these substances were compared with furacillin in a controllable study. The testing microbes used were gram positive bacteria Staphylococcus aureus, gram negative bacteria Pseudomonas aeruginosa, Escherichia coli, and Candida albicans fungus. The experiments used for this survey were meat-pentonlu agar (EPA) for cultivation of bacteria and Saburo environment for fungi. Each experiment used 1 mL of test solution on each plate for […]. Two drops of emulsified with microbes feel were added. All experimental samples were taken from the agar after 10, 20, 40, 60 minutes in the environment on the basis of Patrk planted. Bacteria were cultivated at a temperature of 37° C. for 1 day and the mushroom was kept in a thermostat for […] at a temperature of 28° C. Then results were checked. Those of control and the antimicrobial activity for the synthesized compounds are listed in Table 1 below, with furacillin serving as a reference.
# Escherichia coli = assay: Antimicrobial activity by agar dilution, E. Coli; format: cell-based; conditions: after 10, 20, 40 and 60 minutes at all dilutions 1:100, 1:200, 1:400, and 1:800
# Description: as §1
# Pseudomonas aeruginosa = assay: Antimicrobial activity by agar dilution, Ps. aeruginosa; format: cell-based; conditions: after 10, 20, 40 and 60 minutes at all dilutions 1:100, 1:200, 1:400, and 1:800
# Description: as §1
# Staphylococcus aureus = assay: Antimicrobial activity by agar dilution, St. Aereus; format: cell-based; conditions: after 10, 20, 40 and 60 minutes at all dilutions 1:100, 1:200, 1:400, and 1:800
# Description: as §1
structure (smiles),measurement,setting,value
"CCOC(=O)CN1C2=C(C(=O)CC(c3ccccc3)C2)C(c2cc3cc(Cl)ccc3nc2O)C2=C1CC(c1ccccc1)CC2=O (centres unmarked) [ethyl 2-[9-(6-chloro-2-hydroxyquinolin-3-yl)-3,6-diphenyl-1,8-dioxo-3,4,9,10-tetrahydroacridine-10-yl]-acetate]",inhibition activity compared with Furacilin,Candida albicans,higher inhibition activity
same,inhibition activity compared with Furacilin,Escherichia coli,higher inhibition activity
same,melting point,,222 °C
same,inhibition activity compared with Furacilin,Pseudomonas aeruginosa,higher inhibition activity
same,inhibition activity compared with Furacilin,Staphylococcus aureus,higher inhibition activity
